Assay results: US20230293458A1, “MULTIBIOTIC AGENTS AND METHODS OF USING THE SAME” (Flagship Pioneering Innovations V, Inc., priority 2017, published 2023)

Tests used:
Format in all cases: in vitro ADME
[1] = Stability of multibiotic agents in Simulated Intestinal Fluid (SIF); conditions: simulated intestinal fluid pH 6.7 with pancreatin, 37° C., 1 μM
How it was run: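 Compounds at 1 μM final (from 1 mM DMSO stock) incubated at 37 °C with agitation in fresh SIF (FaSSIF plus pancreatin in pH 6.7 phosphate buffer). Aliquots taken at T0 and regular intervals, quenched with 1 volume acetonitrile. Degradation rate determined by LC/MS.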

[2] = Stability of multibiotic agents in Simulated Gastric Fluid (SGF); conditions: simulated gastric fluid pH 1.6 with pepsin, 37° C., 1 μM
How it was run: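 Compounds were incubated at 1 μM final at 37 °C in simulated gastric fluid containing NaCl, pH 1.6, with FaSSIF powder and 0.1 mg/mL pepsin. Aliquots were taken at T0 and at regular intervals and quenched with acetonitrile. Degradation rates were determined by LC/MS.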

[3] = Assay 4. Fecal Incubation Stability; conditions: fecal slurry in YCFA media, anaerobic, 1 or 10 μM
Procedure: Assay 4. Fecal Incubation Stability. This assay can be used to assess the stability of a multibiotic agent in a large intestine. All experiments performed in an anaerobic chamber containing 90% nitrogen, 5% hydrogen and 5% carbon dioxide. Fecal matter in a slurry (15% (w/v)) was added to 96 well plates containing YCFA media or other suitable media (1.6 mL). Compounds were added to each individual well to reach a final analyte concentration of 1 or 10 μM, and the material was mixed by pipetting. At predetermined timepoints a sample was removed, quenched with acetonitrile, and analyzed by LC/MS.

Compound	Assay 3 (SIF) (% @ Remaining 4 hours) [1]	Assay 2 (SGF) (% Remaining @ 4 hours) [2]	Assay 4 (% Remaining at 24 h) [3]
CCCC(=O)Oc1cc(OC(=O)CCC)c2c(c1)O[C@H](c1cc(OC(=O)CCC)c(OC(=O)CCC)c(OC(=O)CCC)c1)[C@H](OC(=O)c1cc(OC(=O)CCC)c(OC(=O)CCC)c(OC(=O)CCC)c1)C2 [Example 15, [(2R,3R)-5,7-di(butanoyloxy)-2-[3,4,5-tri(butanoyloxy)phenyl]chroman-3-yl] 3,4,5-tri(butanoyloxy)benzoate]	C (>75% of the tested compound remaining)	C (>75% of the tested compound remaining)	C (>75% of the tested compound remaining)
CC(=O)Oc1cc(OC(C)=O)c2c(c1)O[C@H](c1cc(OC(C)=O)c(OC(C)=O)c(OC(C)=O)c1)[C@H](OC(=O)c1cc(OC(C)=O)c(OC(C)=O)c(OC(C)=O)c1)C2 [Example 16, [(2R,3R)-5,7-diacetoxy-2-(3,4,5-triacetoxyphenyl)chroman-3-yl] 3,4,5-triacetoxybenzoate]	A (<25% of the tested compound remaining)	C (>75% of the tested compound remaining)	A (<25% of the tested compound remaining)
CCCC(=O)O[C@@H]1[C@@H](OC(=O)CCC)[C@@H](Oc2ccc(N)cc2C(=O)O)OC[C@H]1OC(=O)CCC [Example 20, 5-amino-2-[(2R,3R,4S,5R)-3,4,5-tri(butanoyloxy)tetrahydropyran-2-yl]oxy-benzoic acid]	C (>75% of the tested compound remaining)	C (>75% of the tested compound remaining)	A (<25% of the tested compound remaining)
CCCC(=O)Oc1ccc2c(c1)oc(=O)c1cc(OC(=O)CCC)c(OC(=O)CCC)cc12 [Example 52, 8,9-di(butanoyloxy)-6-oxo-benzo[c]chromen-3-yl] butanoate]			A (<25% of the tested compound remaining)
O=C(CCc1c[nH]c2ccccc12)Oc1ccc(/C=C/c2cc(OC(=O)CCc3c[nH]c4ccccc34)cc(OC(=O)CCc3c[nH]c4ccccc34)c2)cc1 [Example 71, [4-[(E)-2-[3,5-bis[3-(1H-indol-3-yl)propanoyloxy]phenyl]vinyl]phenyl] 3-(1H-indol-3-yl)propanoate]	C (>75% of the tested compound remaining)	C (>75% of the tested compound remaining)	C (>75% of the tested compound remaining)
CCCC(=O)O[C@H](C)CC(=O)O[C@H]1CO[C@H]2[C@@H]1OC[C@H]2OC(=O)C[C@@H](C)OC(=O)CCC [Example 79, [(3S,3aR,6R,6aR)-6-[(3R)-3-butanoyloxybutanoyl]oxy-2,3,3a,5,6,6a-hexahydrofuro[3,2-b]furan-3-yl] (3R)-3-butanoyloxybutanoate]	B (25-75% of the tested compound remaining)	C (>75% of the tested compound remaining)	B (25-75% of the tested compound remaining)
